These results are taken from patent publication US10266497B2 (ABIDE THERAPEUTICS, INC., priority 2017, dated 2019).

For assay [1], the target named is T1, MAGL (Homo sapiens, UniProt Q99685).
T1 sequence (Q99685 1-303): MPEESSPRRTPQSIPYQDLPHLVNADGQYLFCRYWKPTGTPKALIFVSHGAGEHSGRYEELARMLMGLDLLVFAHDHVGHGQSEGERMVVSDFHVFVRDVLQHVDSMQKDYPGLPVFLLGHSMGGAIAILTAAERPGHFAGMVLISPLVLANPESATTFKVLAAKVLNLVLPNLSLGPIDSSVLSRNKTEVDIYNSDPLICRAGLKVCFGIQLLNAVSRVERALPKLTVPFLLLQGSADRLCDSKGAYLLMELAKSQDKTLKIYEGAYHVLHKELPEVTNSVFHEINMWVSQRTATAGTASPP
Kind of assay: In vitro competitive activity-based protein profiling, MAGL, human. As to conditions: read-out: MAGL % inh. 1 μM (human).

For assay [2], the target named is T2, MAGL (Mus musculus, UniProt O35678).
T2 sequence (O35678 1-303): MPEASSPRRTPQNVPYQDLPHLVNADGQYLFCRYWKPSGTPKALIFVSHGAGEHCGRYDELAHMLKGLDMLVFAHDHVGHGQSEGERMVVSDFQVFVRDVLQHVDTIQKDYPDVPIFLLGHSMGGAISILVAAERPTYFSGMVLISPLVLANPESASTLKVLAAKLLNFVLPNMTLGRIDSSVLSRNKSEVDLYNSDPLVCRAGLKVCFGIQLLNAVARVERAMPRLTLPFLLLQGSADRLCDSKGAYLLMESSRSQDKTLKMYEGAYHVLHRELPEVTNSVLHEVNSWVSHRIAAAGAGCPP
Description: In vitro competitive activity-based protein profiling, MAGL, mouse. As to conditions: read-out: MAGL % inh. 1 μM (mouse).

For assay [3], the target named is T3, FAAH (Homo sapiens, UniProt O00519).
T3 sequence (O00519 1-579): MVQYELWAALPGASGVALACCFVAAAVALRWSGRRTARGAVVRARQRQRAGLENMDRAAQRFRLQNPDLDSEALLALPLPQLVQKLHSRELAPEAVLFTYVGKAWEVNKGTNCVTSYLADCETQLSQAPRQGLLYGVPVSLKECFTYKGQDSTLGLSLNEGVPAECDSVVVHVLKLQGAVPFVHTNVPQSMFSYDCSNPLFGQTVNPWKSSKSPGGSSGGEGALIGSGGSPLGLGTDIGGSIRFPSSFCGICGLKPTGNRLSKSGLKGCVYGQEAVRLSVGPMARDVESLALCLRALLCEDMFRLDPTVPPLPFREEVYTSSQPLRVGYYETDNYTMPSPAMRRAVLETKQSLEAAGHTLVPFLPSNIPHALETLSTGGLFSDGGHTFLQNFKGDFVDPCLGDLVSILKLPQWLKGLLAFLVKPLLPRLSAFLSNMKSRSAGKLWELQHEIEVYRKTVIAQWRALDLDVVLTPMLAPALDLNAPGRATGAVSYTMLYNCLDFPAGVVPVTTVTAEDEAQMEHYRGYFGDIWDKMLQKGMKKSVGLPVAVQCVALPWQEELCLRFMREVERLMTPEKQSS
Kind of assay: In vitro competitive activity-based protein profiling, FAAH, human. As to conditions: for inhibition at 1 µM: read-out: FAAH % inh. 1 μM (human).

The target of assay [4] is T4, FAAH (Mus musculus, UniProt O08914).
T4 sequence (O08914 1-579): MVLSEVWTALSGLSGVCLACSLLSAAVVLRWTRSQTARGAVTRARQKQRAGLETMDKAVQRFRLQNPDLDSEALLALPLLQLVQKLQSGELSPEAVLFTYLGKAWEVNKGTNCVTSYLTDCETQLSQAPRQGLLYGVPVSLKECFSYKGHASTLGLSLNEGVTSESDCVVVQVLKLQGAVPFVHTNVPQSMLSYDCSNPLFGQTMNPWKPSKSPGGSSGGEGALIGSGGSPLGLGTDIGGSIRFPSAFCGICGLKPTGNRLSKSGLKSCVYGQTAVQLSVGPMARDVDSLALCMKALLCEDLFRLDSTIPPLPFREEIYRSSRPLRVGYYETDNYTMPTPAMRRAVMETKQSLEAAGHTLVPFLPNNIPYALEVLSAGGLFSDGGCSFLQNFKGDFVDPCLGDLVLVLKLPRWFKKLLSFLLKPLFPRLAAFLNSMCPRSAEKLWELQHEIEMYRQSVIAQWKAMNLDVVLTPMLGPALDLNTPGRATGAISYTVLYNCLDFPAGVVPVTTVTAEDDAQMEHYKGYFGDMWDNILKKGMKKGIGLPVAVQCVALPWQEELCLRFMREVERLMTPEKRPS
Kind of assay: In vitro competitive activity-based protein profiling, FAAH, mouse. As to conditions: read-out: FAAH % inh. 1 μM (mouse).

Turning to `C[C@@H]1CCCCN1c1cc(C(F)(F)F)ccc1CN1CCN(C(=O)n2ccc(C(=O)O)n2)CC1` [Example 103, (R)-1-(4-(2-(2-methylpiperidin-1-yl)-4-(trifluoromethyl)benzyl)piperazine-1-carbonyl)-1H-pyrazole-3-carboxylic acid], the inhibition at 1 µM on MAGL [1] is more than 75%; on MAGL [2] it was more than 75%; on FAAH [3], 0 to 25%; at FAAH [4] it was 0 to 25%.
With `Cc1ccc(CN2CCN(C(=O)n3ccc(C(=O)O)n3)CC2)c(-c2nnco2)c1` [Example 66, 1-(4-(4-methyl-2-(1,3,4-oxadiazol-2-yl)benzyl)piperazine-1-carbonyl)-1H-pyrazole-3-carboxylic acid], the inhibition at 1 µM at MAGL [1] was more than 75%; on MAGL [2], more than 75%; on FAAH [3], 0 to 25%; on FAAH [4], 0 to 25%.
Regarding `O=C(O)c1ccn(C(=O)N2CCN(Cc3cccc(Oc4cccnc4)c3)CC2)n1` [Example 18, 1-(4-(3-(Pyridin-3-yloxy)benzyl)piperazine-1-carbonyl)-1H-pyrazole-3-carboxylic Acid], the inhibition at 1 µM lay within 50 to 75% on MAGL [1], 25 to 50% at MAGL [2], 0 to 25% at FAAH [3] and 0 to 25% at FAAH [4].
As to `O=C(O)c1ccn(C(=O)N2CCC3(CCN(Cc4ccc(C(F)(F)F)cc4Cl)C3)CC2)n1` [Example 77, 1-(2-(2-chloro-4-(trifluoromethyl)benzyl)-2,8-diazaspiro[4.5]decane-8-carbonyl)-1H-pyrazole-3-carboxylic acid], the inhibition at 1 µM on MAGL [1] was more than 75%; at MAGL [2] it was more than 75%; on FAAH [3] it was 0 to 25%; at FAAH [4], 0 to 25%. Besides, the half-maximal inhibitory concentration (IC50) – broadly, the point on the concentration scale where inhibition reaches its midpoint – at FAAH [3] is 1000 to 10000 nM.
Consider `O=C(O)c1ccn(C(=O)N2CCN(Cc3nc4ccccc4s3)CC2)n1` [Example 189, 1-(4-(benzo[d]thiazol-2-ylmethyl)piperazine-1-carbonyl)-1H-pyrazole-3-carboxylic acid], for which the inhibition at 1 µM was more than 75% at MAGL [1], more than 75% on MAGL [2], 0 to 25% on FAAH [3] and 0 to 25% at FAAH [4].
For `O=C(O)c1ccn(C(=O)N2CCN(Cc3ccc(N4CCCC4)cc3C(F)(F)F)CC2)n1` [Example 167, 1-(4-(4-(pyrrolidin-1-yl)-2-(trifluoromethyl)benzyl)piperazine-1-carbonyl)-1H-pyrazole-3-carboxylic acid], the inhibition at 1 µM at MAGL [1] was more than 75%; on MAGL [2], more than 75%; on FAAH [3], 25 to 50%; at FAAH [4], 0 to 25%. Also, the 50% inhibitory concentration (IC50) at FAAH [3] fell in the range of 1000 to 10000 nM.
For the compound `O=C(O)c1ccn(C(=O)N2CC3CN(Cc4cccc(C(F)(F)F)c4)CC3C2)n1` (stereo not shown) [Example 122, 1-(5-(3-(trifluoromethyl)benzyl)octahydro-pyrrolo[3,4-c]pyrrole-2-carbonyl)-1H-pyrazole-3-carboxylic acid], the inhibition at 1 µM on MAGL [1] fell in the range of 50 to 75%; at MAGL [2], 25 to 50%; at FAAH [3], 0 to 25%; on FAAH [4] it was 50 to 75%.
Take `O=C(O)c1ccn(C(=O)N2CCN(Cc3ccc(Oc4ccc(Cl)cc4)cc3)CC2)n1` [Example 45, 1-(4-(4-(4-chlorophenoxy)benzyl)piperazine-1-carbonyl)-1H-pyrazole-3-carboxylic acid]: the inhibition at 1 µM at MAGL [1], on MAGL [2], at FAAH [3] and at FAAH [4] was more than 75% throughout. For the same compound, the IC50 at FAAH [3] lay within 100 to 1000 nM.
As for `O=C(O)c1ccn(C(=O)N2C[C@H]3C[C@H](Oc4cccc(-c5ccccc5)c4)C[C@H]3C2)n1` [Example 125, 1-(trans-5-([1,1′-biphenyl]-3-yloxy)octahydro-cyclopenta[c]pyrrole-2-carbonyl)-1H-pyrazole-3-carboxylic acid], the inhibition at 1 µM on MAGL [1], at MAGL [2], at FAAH [3] and on FAAH [4] was more than 75% throughout.
On to `O=C(O)c1ccn(C(=O)N2CCC3(CCN(Cc4cc(F)cc(Cl)c4)C3)CC2)n1` [Example 70, 1-(2-(3-chloro-5-fluorobenzyl)-2,8-diazaspiro[4.5]decane-8-carbonyl)-1H-pyrazole-3-carboxylic acid], for which the inhibition at 1 µM at MAGL [1] was in the range of 25 to 50%; at MAGL [2], 0 to 25%; at FAAH [3], 50 to 75%; at FAAH [4], 0 to 25%.
For `O=C(O)c1ccn(C(=O)N2CCC3(CCN(Cc4ccc(N5CCCC5)c(Cl)c4)C3)CC2)n1` [Example 168, 1-(2-(3-chloro-4-(pyrrolidin-1-yl)benzyl)-2,8-diazaspiro[4.5]decane-8-carbonyl)-1H-pyrazole-3-carboxylic acid], the inhibition at 1 µM at MAGL [1] lay within 50 to 75%; on MAGL [2], 0 to 25%; at FAAH [3], 0 to 25%; at FAAH [4], 0 to 25%.
For `O=C(O)c1ccn(C(=O)N2CCC3(CCCN3C(=O)c3cc4ccc(C(F)(F)F)cc4s3)CC2)n1` [Example 56, 1-(1-(6-(trifluoromethyl)benzo[b]thiophene-2-carbonyl)-1,8-diazaspiro[4.5]decane-8-carbonyl)-1H-pyrazole-3-carboxylic acid], the inhibition at 1 µM at MAGL [1] was more than 75%; on MAGL [2], more than 75%; at FAAH [3], 0 to 25%; at FAAH [4], 50 to 75%.
`O=C(O)c1nn(C(=O)N2CC3CN(Cc4cccc(Oc5ccc(Cl)cc5)c4)CC3C2)cc1C(F)(F)F` (stereo not shown) [Example 147, 1-(5-(3-(4-chlorophenoxy)benzyl)octahydro-pyrrolo[3,4-c]pyrrole-2-carbonyl)-4-(trifluoromethyl)-1H-pyrazole-3-carboxylic acid]: the inhibition at 1 µM was more than 75% at MAGL [1], 0 to 25% at MAGL [2], more than 75% on FAAH [3] and more than 75% at FAAH [4].
Take `O=C(O)c1ccn(C(=O)N2CCN(Cc3cccc(Oc4cnccn4)c3)CC2)n1` [Example 60]: the inhibition at 1 µM at MAGL [1] is 25 to 50%; at MAGL [2], 0 to 25%; at FAAH [3], 0 to 25%; at FAAH [4] it was 0 to 25%.
As for `O=C(O)c1ccn(C(=O)N2CCC3(CCN(Cc4ccc(C(F)(F)F)cc4N4CCC(F)CC4)CC3)C2)n1` [Example 186, 1-(8-(2-(4-fluoropiperidin-1-yl)-4-(trifluoromethyl)benzyl)-2,8-diazaspiro[4.5]decane-2-carbonyl)-1H-pyrazole-3-carboxylic acid], the inhibition at 1 µM was 50 to 75% at MAGL [1], more than 75% at MAGL [2], 0 to 25% at FAAH [3] and 0 to 25% at FAAH [4].
`C#Cc1ccc(CN2CCN(C(=O)n3ccc(C(N)=O)n3)CC2)cc1` [Example 144, 1-(4-(4-ethynylbenzyl)piper-azine-1-carbonyl)-1H-pyrazole-3-carboxamide]: the inhibition at 1 µM on MAGL [1], at MAGL [2], at FAAH [3] and on FAAH [4] was more than 75% each time.
